Each structure is given as a SMILES string.

This note sets out measurements from US10435394B2, “Plant growth-promotion agent and method for promoting plant growth” (RIKEN, priority 2014, dated 2019).

What all share (assay type): in vivo
Experiment [1] concerns Arabidopsis seeds (Columbia). Kind of experiment: Plant growth promoting activity test using Arabidopsis, Experimental Method (2). The following applies: 15, 30, 60 μM; for growth of aerial leaves: Day 26 of sprouting, FIGS. 15 and 16; for growth of aerial leaves (average leaf area per individual): Day 27 of sprouting, FIGS. 10 and 11; for plant growth promoting effects (state of sprouting): Day 22, FIGS. 6 and 7. Here is the method:
A ½ MS medium (agarose: 0.9%; sucrose: 1.5%; Murashige & Skoog plant culture medium×½ concentration) was prepared and autoclaved. Then, the test compounds were separately added thereto at 0 (DMSO alone), 15, 30, and 60 μM and solidified in a plastic petri dish. Arabidopsis seeds (Columbia) were sterilized with ethanol and sown to sprout, followed by observation of conditions of leaves and roots after sprouting. DMSO alone was added as a solvent for a control.

The subject of experiment [2] is Arabidopsis seeds (Columbia). Kind of experiment: Plant growth promoting activity test using Arabidopsis, Experimental Method (1). As to conditions: 5, 15, 30, 45, 60 μM.
The test system of a further experiment is rice (Nipponbare). Kind of experiment: Plant growth promoting effects upon rice. The following applies: 15 or 30 μM in water absorbed from the bottom of the pot from Day 7; Day 21 of sprouting; FIG. 18. On the procedure: A plant pot containing rice culture soil was prepared and rice (Nipponbare) was sown therein. Rice was raised with distilled water until Day 7 of sprouting. Rice was allowed to absorb distilled water containing the compound 1 (PPZ) at a concentration of 0 (DMSO alone), 15, or 30 μM from the bottom of the pot from Day 7 of sprouting. Water used was discarded every 7 days and replaced by fresh water. Rice was photographed and the plant length of rice was measured on Day 21 of sprouting or Day of 14 from the start of treatment.

In another experiment the test system is Tomato seeds (Micro-Tom). The experiment in a line: Plant growth promoting effects on tomato. The following applies: 5, 15, 30 μM in 1/2 MS medium; Day 73 of sprouting; FIG. 17. On the procedure:
A ½ MS medium (agarose: 0.9%; sucrose: 1.5%; Murashige & Skoog plant culture medium×½ concentration) was prepared and autoclaved. Then, the compound 1 (PPZ) was added thereto at 0 (DMSO alone), 5, 15, and 30 μM and solidified in a plastic pot. Tomato seeds (Micro-Tom) were sterilized with hypochlorous acid and sown to sprout, followed by observation of conditions of leaves and stems after sprouting. DMSO alone was added as a solvent for a control.

For experiment [3], the system named is Arabidopsis seeds (Columbia). Kind of experiment: Plant growth promoting activity test using Arabidopsis, Experimental Method (1). The following applies: for plant growth promoting effects (state of sprouting): 60 μM in 1/2 MS medium, Day 23, FIG. 1. Here is the method:
A ½ MS medium (agarose: 0.9%; sucrose: 1.5%; Murashige & Skoog plant culture medium×½ concentration) was prepared and autoclaved. Then, the test compounds were separately added thereto at 60 μM and solidified in a plastic petri dish. Arabidopsis seeds (Columbia) were sterilized with ethanol and sown to sprout, followed by observation of conditions of leaves, roots, and stems after sprouting. DMSO alone was added as a solvent for a control.

As to `c1cc2c(cc1CCN1CCOCC1)OCO2` [Compound 16], in experiment [1], the “growth of aerial leaves” value is on record as “activity of promoting the growth of aerial leaves at the late growth stage” and the “growth of aerial leaves (average leaf area per individual)” value is “activity of promoting growth of aerial leaves at the late growth stage”.
With `c1cc2c(cc1CN1CCNCC1)OCO2` [Compound 1, 1-piperonylpiperazine], the “development/growth of lateral roots” value in experiment [2] (Day 13 of sprouting, constant light irradiation, FIG. 2) was “activity of promoting development/growth of lateral roots in the early growth stage”. For the same compound, the “growth of aerial leaves and petioles” value in experiment [2] (Day 21 of sprouting, FIG. 3) was “activity of promoting growth of aerial leaves and petioles in the late growth stage”. Besides, the branching entry in experiment [2] (Day 35 of sprouting, FIG. 4) was “activity of promoting branching”. Also, in experiment [2] (sodium chloride 125 mM, Day 21 of sprouting, FIG. 5), the salt tolerance result is listed as “action of enhancing salt tolerance”. In addition, the “growth of aerial leaves and stems of rice (plant length)” value in the experiment with rice (Nipponbare) was “activity of promoting the growth of aerial leaves and stems of rice”. In addition, in experiment [1], the “growth of aerial leaves” value is listed as “activity of promoting the growth of aerial leaves at the late growth stage” and the “growth of aerial leaves (average leaf area per individual)” value is given as “activity of promoting growth of aerial leaves at the late growth stage”. In addition, in the experiment on Tomato seeds (Micro-Tom), the “growth of aerial leaves and stems of tomato” value is “activity of promoting the growth of aerial leaves and stems of tomato”.
For the compound `COc1ccc(N2CCOCC2)cc1OC` [Compound 15], the “plant growth promoting effects (state of sprouting)” value (“plant growth promoting effects” below) in experiment [1] is on record as “weak plant growth promoting effects”.
Turning to `COCCN(C)Cc1ccc2c(c1)OCO2` [Compound 22], the “growth of aerial leaves” value in experiment [1] was “activity of promoting the growth of aerial leaves at the late growth stage”.
With `CN1CCN(Cc2ccc3c(c2)OCO3)CC1` [Compound 11], the “elongation of stems and roots” value in experiment [3] (not shown in figures) was “excellent plant growth promoting effects for elongation of stems and roots”.
Take `c1ncn(Cc2ccc3c(c2)OCO3)n1` [Compound 6]: in experiment [3], the “plant growth promoting effects” value is “decreased plant growth promoting activity and/or growth inhibition”.
For `COc1cc(CN2CCOCC2)cc(OC)c1OC` [Compound 13], in experiment [1], the “plant growth promoting effects” value is recorded as “weak plant growth promoting effects”.
As to `O=S1(=O)CCN(Cc2ccc3c(c2)OCO3)CC1` [Compound 21], the “growth of aerial leaves” value in experiment [1] was “activity of promoting the growth of aerial leaves at the late growth stage”.
As to `c1cc2c(cc1CN1CCN(Cc3ccc4c(c3)OCO4)CC1)OCO2` [Compound 2, 1,4-dipiperonylpiperazine], in experiment [3], the “plant growth promoting effects” value is “decreased plant growth promoting activity and/or growth inhibition”.
On to `c1cc2c(cc1CN1CCOCC1)OCO2` [Compound 4], for which the “growth of aerial leaves” value in experiment [1] is “activity of promoting the growth of aerial leaves at the late growth stage”.
With `c1cc2c(cc1CN1CCSCC1)OCO2` [Compound 12], in experiment [3] (not shown in figures), the “elongation of stems and roots” value was “excellent plant growth promoting effects for elongation of stems and roots”.
On to `COc1ccc(CN2CCOCC2)cc1OC` [Compound 10], for which the “elongation of the main root” value in experiment [3] (not shown in figures) is reported as “excellent plant growth promoting effects for elongation of the main root”.
Take `c1cn(Cc2ccc3c(c2)OCO3)nn1` [Compound 7]: the “plant growth promoting effects” value in experiment [3] was “decreased plant growth promoting activity and/or growth inhibition”.
